Reference: the supplement of paper PMC10307832

Legend:
Assay in all cases: relative viability (nuclei count vs DMSO), 5 days (fraction); higher = more cells survive
A-427 = tested on: A-427
In short: (§1)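 Relative viability was taken as the ratio of nuclei in treated wells to nuclei in vehicle wells. Lung cancer cell lines in 1536-well plates received compounds by pin tool one day after seeding, either one drug alone or a fixed anchor-drug dose plus five library-drug doses (not always all listed) in √10 steps. Nuclei were counted on 4× images after 5 days of treatment, and values are medians of duplicate plates.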

CAL-12T = tested on: CAL-12T
In short: as §1

COR-L 105 = tested on: COR-L 105
In short: as §1

EMC-BAC-2 = tested on: EMC-BAC-2
In short: as §1

HARA = tested on: HARA
In short: as §1

HCC-366 = tested on: HCC-366
In short: as §1

HCC-827 = tested on: HCC-827
In short: as §1

HOP-62 = tested on: HOP-62
In short: as §1

LCLC-103H = tested on: LCLC-103H
In short: as §1

NCI-H1395 = tested on: NCI-H1395
In short: as §1

NCI-H1437 = tested on: NCI-H1437
In short: as §1

NCI-H1755 = tested on: NCI-H1755
In short: as §1

NCI-H1792 = tested on: NCI-H1792
In short: as §1

NCI-H1915 = tested on: NCI-H1915
In short: as §1

NCI-H2009 = tested on: NCI-H2009
In short: as §1

NCI-H2228 = tested on: NCI-H2228
In short: as §1

NCI-H23 = tested on: NCI-H23
In short: as §1

NCI-H460 = tested on: NCI-H460
In short: as §1

NCI-H522 = tested on: NCI-H522
In short: as §1

NCI-H727 = tested on: NCI-H727
In short: as §1

SK-LU-1 = tested on: SK-LU-1
In short: as §1

SW 1573 = tested on: SW 1573
In short: as §1

`CC(=O)O[C@@]12CO[C@@H]1C[C@H](O)[C@@]1(C)C(=O)[C@H](O)C3=C(C)[C@@H](OC(=O)[C@H](O)[C@@H](NC(=O)OC(C)(C)C)c4ccccc4)C[C@@](O)([C@@H](OC(=O)c4ccccc4)[C@H]21)C3(C)C` [Docetaxel] + Cc1nc(Nc2ncc(C(=O)Nc3c(C)cccc3Cl)s2)cc(N2CCN(CCO)CC2)n1 [Dasatinib] (partner 0.075 µM) gave a relative viability (A-427; first compound 0.0002 µM) of 0.721, a relative viability (A-427; first compound 0.000632 µM) of 0.642 and a relative viability (A-427; first compound 0.002 µM) of 0.445. For the same compound, the relative viability (A-427; first compound 0.006325 µM) was 0.154, the relative viability (A-427; first compound 0.02 µM) was 0.141 and the relative viability (CAL-12T; first compound 0.0002 µM) was 0.412. The relative viability (CAL-12T; first compound 0.000632 µM) was 0.192, the relative viability (CAL-12T; first compound 0.002 µM) was 0.137 and the relative viability (CAL-12T; first compound 0.006325 µM) was 0.0909. For the same compound, the relative viability (CAL-12T; first compound 0.02 µM) was 0.0651, the relative viability (COR-L 105; first compound 0.0002 µM) was 0.322 and the relative viability (COR-L 105; first compound 0.000632 µM) was 0.288. The relative viability (COR-L 105; first compound 0.002 µM) was 0.224, the relative viability (COR-L 105; first compound 0.006325 µM) was 0.249 and the relative viability (COR-L 105; first compound 0.02 µM) was 0.202. For the same compound, the relative viability (EMC-BAC-2; first compound 0.0002 µM) was 0.298, the relative viability (EMC-BAC-2; first compound 0.000632 µM) was 0.232 and the relative viability (EMC-BAC-2; first compound 0.002 µM) was 0.192. For the same compound, the relative viability (EMC-BAC-2; first compound 0.006325 µM) was 0.228, the relative viability (EMC-BAC-2; first compound 0.02 µM) was 0.132 and the relative viability (HARA; first compound 0.0002 µM) was 0.261. The relative viability (HARA; first compound 0.000632 µM) was 0.173, the relative viability (HARA; first compound 0.002 µM) was 0.134 and the relative viability (HARA; first compound 0.006325 µM) was 0.0839. For the same compound, the relative viability (HARA; first compound 0.02 µM) was 0.0451, the relative viability (HCC-366; first compound 0.0002 µM) was 0.569 and the relative viability (HCC-366; first compound 0.000632 µM) was 0.255. The relative viability (HCC-366; first compound 0.002 µM) was 0.119, the relative viability (HCC-366; first compound 0.006325 µM) was 0.0384 and the relative viability (HCC-366; first compound 0.02 µM) was 0.0228. It also gave a relative viability (HCC-827; first compound 0.0002 µM) of 0.237, a relative viability (HCC-827; first compound 0.000632 µM) of 0.297 and a relative viability (HCC-827; first compound 0.002 µM) of 0.289. The relative viability (HCC-827; first compound 0.006325 µM) was 0.22, the relative viability (HCC-827; first compound 0.02 µM) was 0.155 and the relative viability (HOP-62; first compound 0.0002 µM) was 0.56. It also gave a relative viability (HOP-62; first compound 0.000632 µM) of 0.58, a relative viability (HOP-62; first compound 0.002 µM) of 0.309 and a relative viability (HOP-62; first compound 0.02 µM) of 0.155. The relative viability (LCLC-103H; first compound 0.0002 µM) was 0.34, the relative viability (LCLC-103H; first compound 0.000632 µM) was 0.456 and the relative viability (LCLC-103H; first compound 0.002 µM) was 0.337. It also gave a relative viability (LCLC-103H; first compound 0.006325 µM) of 0.311, a relative viability (LCLC-103H; first compound 0.02 µM) of 0.19 and a relative viability (NCI-H1395; first compound 0.0002 µM) of 0.439. For the same compound, the relative viability (NCI-H1395; first compound 0.000632 µM) was 0.469, the relative viability (NCI-H1395; first compound 0.002 µM) was 0.402 and the relative viability (NCI-H1395; first compound 0.006325 µM) was 0.327. For the same compound, the relative viability (NCI-H1395; first compound 0.02 µM) was 0.272, the relative viability (NCI-H1437; first compound 0.0002 µM) was 0.339 and the relative viability (NCI-H1437; first compound 0.000632 µM) was 0.259. For the same compound, the relative viability (NCI-H1437; first compound 0.002 µM) was 0.268, the relative viability (NCI-H1437; first compound 0.006325 µM) was 0.174 and the relative viability (NCI-H1437; first compound 0.02 µM) was 0.122. The relative viability (NCI-H1755; first compound 0.0002 µM) was 0.385, the relative viability (NCI-H1755; first compound 0.000632 µM) was 0.359 and the relative viability (NCI-H1755; first compound 0.002 µM) was 0.306. The relative viability (NCI-H1755; first compound 0.006325 µM) was 0.286, the relative viability (NCI-H1755; first compound 0.02 µM) was 0.222 and the relative viability (NCI-H1792; first compound 0.0002 µM) was 0.796. The relative viability (NCI-H1792; first compound 0.000632 µM) was 0.707, the relative viability (NCI-H1792; first compound 0.002 µM) was 0.648 and the relative viability (NCI-H1792; first compound 0.006325 µM) was 0.482. It also gave a relative viability (NCI-H1792; first compound 0.02 µM) of 0.22, a relative viability (NCI-H1915; first compound 0.0002 µM) of 0.304 and a relative viability (NCI-H1915; first compound 0.000632 µM) of 0.331. It also gave a relative viability (NCI-H1915; first compound 0.002 µM) of 0.228, a relative viability (NCI-H1915; first compound 0.006325 µM) of 0.153 and a relative viability (NCI-H1915; first compound 0.02 µM) of 0.0717. It also gave a relative viability (NCI-H2009; first compound 0.0002 µM) of 0.261, a relative viability (NCI-H2009; first compound 0.000632 µM) of 0.299 and a relative viability (NCI-H2009; first compound 0.002 µM) of 0.273. It also gave a relative viability (NCI-H2009; first compound 0.006325 µM) of 0.204, a relative viability (NCI-H2009; first compound 0.02 µM) of 0.121 and a relative viability (NCI-H2228; first compound 0.0002 µM) of 0.429. For the same compound, the relative viability (NCI-H2228; first compound 0.000632 µM) was 0.151, the relative viability (NCI-H2228; first compound 0.002 µM) was 0.12 and the relative viability (NCI-H2228; first compound 0.006325 µM) was 0.146. It also gave a relative viability (NCI-H2228; first compound 0.02 µM) of 0.0836, a relative viability (NCI-H23; first compound 0.0002 µM) of 0.838 and a relative viability (NCI-H23; first compound 0.000632 µM) of 0.777. The relative viability (NCI-H23; first compound 0.002 µM) was 0.483, the relative viability (NCI-H23; first compound 0.006325 µM) was 0.188 and the relative viability (NCI-H23; first compound 0.02 µM) was 0.0867. The relative viability (NCI-H460; first compound 0.0002 µM) was 0.457, the relative viability (NCI-H460; first compound 0.000632 µM) was 0.44 and the relative viability (NCI-H460; first compound 0.002 µM) was 0.089. The relative viability (NCI-H460; first compound 0.006325 µM) was 0.0266, the relative viability (NCI-H460; first compound 0.02 µM) was 0.0131 and the relative viability (NCI-H522; first compound 0.0002 µM) was 0.712. For the same compound, the relative viability (NCI-H522; first compound 0.000632 µM) was 0.866, the relative viability (NCI-H522; first compound 0.002 µM) was 0.649 and the relative viability (NCI-H522; first compound 0.006325 µM) was 0.672. The relative viability (NCI-H522; first compound 0.02 µM) was 0.49, the relative viability (NCI-H727; first compound 0.0002 µM) was 0.367 and the relative viability (NCI-H727; first compound 0.000632 µM) was 0.326. For the same compound, the relative viability (NCI-H727; first compound 0.002 µM) was 0.272, the relative viability (NCI-H727; first compound 0.006325 µM) was 0.395 and the relative viability (NCI-H727; first compound 0.02 µM) was 0.276. It also gave a relative viability (SK-LU-1; first compound 0.0002 µM) of 0.175, a relative viability (SK-LU-1; first compound 0.000632 µM) of 0.156 and a relative viability (SK-LU-1; first compound 0.006325 µM) of 0.122. The relative viability (SK-LU-1; first compound 0.02 µM) was 0.132, the relative viability (SW 1573; first compound 0.0002 µM) was 0.307 and the relative viability (SW 1573; first compound 0.000632 µM) was 0.19. For the same compound, the relative viability (SW 1573; first compound 0.002 µM) was 0.122 and the relative viability (SW 1573; first compound 0.02 µM) was 0.0658.
